Experimental data as given in ChEMBL document CHEMBL1148889, “Biaryl cannabinoid mimetics--synthesis and structure-activity relationship” (Bioorg Med Chem Lett, 2007).
Several values for one entry are separate records, joined by “and”; a condition that tells them apart may be missing. Identical values can stand only once.

Columns and labels:
[1] = target: Cannabinoid receptor 1 (Homo sapiens, UniProt P21554); test: Displacement of [3H]CP-55940 from cloned human CB1 receptor
[2] = target: Cannabinoid receptor 2 (Homo sapiens, UniProt P34972); test: Displacement of [3H]CP-55940 from cloned human CB2 receptor
[3] = target: Cannabinoid receptor (Homo sapiens) (UniProt P34972+P21554); test: Selectivity for human CB2 receptor over human CB1 receptor; assay type: protein assay
Chain of Cannabinoid receptor (Homo sapiens) (P21554 whole entry, looked up): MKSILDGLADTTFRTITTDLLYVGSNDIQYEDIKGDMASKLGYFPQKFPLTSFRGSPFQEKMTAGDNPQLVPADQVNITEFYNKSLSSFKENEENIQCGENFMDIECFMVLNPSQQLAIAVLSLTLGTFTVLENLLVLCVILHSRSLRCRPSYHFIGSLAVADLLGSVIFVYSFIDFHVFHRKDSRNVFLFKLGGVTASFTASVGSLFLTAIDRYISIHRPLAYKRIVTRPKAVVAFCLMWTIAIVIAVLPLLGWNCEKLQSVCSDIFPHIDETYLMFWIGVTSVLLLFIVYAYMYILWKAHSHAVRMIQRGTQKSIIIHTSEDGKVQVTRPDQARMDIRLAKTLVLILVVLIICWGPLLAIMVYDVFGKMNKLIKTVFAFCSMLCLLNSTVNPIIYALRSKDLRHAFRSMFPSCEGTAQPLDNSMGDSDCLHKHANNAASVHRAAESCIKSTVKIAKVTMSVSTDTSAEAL
Chain of Cannabinoid receptor (Homo sapiens) (P34972 whole entry, looked up): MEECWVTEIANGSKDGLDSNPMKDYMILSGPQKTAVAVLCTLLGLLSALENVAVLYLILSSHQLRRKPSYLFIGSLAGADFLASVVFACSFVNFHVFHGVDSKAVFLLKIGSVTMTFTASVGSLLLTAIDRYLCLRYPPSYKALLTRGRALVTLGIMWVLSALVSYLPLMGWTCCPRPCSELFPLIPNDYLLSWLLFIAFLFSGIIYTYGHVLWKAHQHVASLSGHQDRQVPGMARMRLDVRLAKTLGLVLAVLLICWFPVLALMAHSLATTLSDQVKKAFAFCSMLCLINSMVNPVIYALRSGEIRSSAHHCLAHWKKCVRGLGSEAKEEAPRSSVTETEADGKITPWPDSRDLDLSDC

Chain of Cannabinoid receptor 1 (P21554 whole entry): as the sequence (P21554 whole entry, looked up) above
Chain of Cannabinoid receptor 2 (P34972 whole entry): as the sequence (P34972 whole entry, looked up) above

For `CCCCCCC1(c2ccc(-c3cc(C)cc(C)c3)c(O)c2)CCCC1`, which Ki [1] is on record?
Its Ki is 0.0029 µM.

And the Ki [2]?
The Ki was 0.0055 µM.

What about the Ratio Ki [3] of the same compound?
The Ratio Ki was 0.5.

What does the source list for `CCCCCCC(C)(C)c1ccc(-c2cccnc2)c(O)c1`?
Ki [1]: 0.023 µM; Ki [2]: 0.02 µM; Ratio Ki [3]: 1

With `CCCCCCC(C)(C)c1ccc(-c2cccc(OC)c2OC)c(O)c1` as the compound, how does the Ki [1] read?
Its Ki is 0.034 µM.

What about the Ki [2] of the same compound?
The Ki was 0.0078 µM.

What about the Ratio Ki [3] of the same compound?
The Ratio Ki was 4.

Which results are given for `CCCCCCC(C)(C)c1ccc(-c2ccc(N)cc2)c(O)c1`?
Ki [1]: 0.32 µM; Ki [2]: 1 µM; Ratio Ki [3]: 0.3

What does the source list for `CCCCCCC(C)(C)c1ccc(-c2cc(C)cc(C)c2)c(OC)c1`?
Ki [1]: 0.32 µM; Ki [2]: 0.034 µM; Ratio Ki [3]: 9

For `CCCCCCC(C)(C)c1ccc(-c2ccc(OC)c(OC)c2)c(O)c1`, which Ki [1] is on record?
Its Ki is 1.4 µM.

And the Ki [2]?
Its Ki is 1.7 µM.

And the Ratio Ki [3]?
The Ratio Ki was 0.8.

How did the Ki [1] turn out when `COC(=O)CCCCC(C)(C)c1ccc(-c2cc(C)cc(C)c2)c(O)c1` was run?
Its Ki is 0.024 µM.

What about the Ki [2] of the same compound?
The Ki was 0.014 µM.

What about the Ratio Ki [3] of the same compound?
Its Ratio Ki is 2.

`CCCCCCC(C)(C)c1ccc(-c2cccc(C)c2C)c(O)c1` was tested. Which Ki [1] did it give?
The Ki was 0.049 µM.

And the Ki [2]?
The Ki was 0.02 µM.

What about the Ratio Ki [3] of the same compound?
The Ratio Ki was 2.

With `CCCCCCC(C)(C)c1ccc(-c2cc(C)ccc2C)c(O)c1` as the compound, how does the Ki [1] read?
Its Ki is 0.0046 µM.

And the Ki [2]?
The Ki was 0.0066 µM.

What about the Ratio Ki [3] of the same compound?
Its Ratio Ki is 0.7.

How did the Ki [1] turn out when `COC(=O)CCC(C)(C)c1ccc(-c2cc(C)cc(C)c2)c(O)c1` was run?
Its Ki is 0.12 µM.

And the Ki [2]?
Its Ki is 0.0056 µM.

And the Ratio Ki [3]?
The Ratio Ki was 20.

Which Ki [1] does the source give for `CCCCCCC(C)(C)c1ccc(-c2cccc(OC)c2)c(O)c1` here?
The Ki was 0.091 µM.

What about the Ki [2] of the same compound?
Its Ki is 0.58 µM.

What about the Ratio Ki [3] of the same compound?
Its Ratio Ki is 0.2.

What does the source list for `CCCCCCC(C)(C)c1ccc(-c2ccccc2OC)c(O)c1`?
Ki [1]: 0.0017 µM; Ki [2]: 0.001 µM; Ratio Ki [3]: 2

How did the Ki [1] turn out when `CCCCCCC(C)(C)c1ccc(-c2cccc(C#N)c2)c(O)c1` was run?
Its Ki is 0.027 µM.

What about the Ki [2] of the same compound?
The Ki was 0.045 µM.

And the Ratio Ki [3]?
Its Ratio Ki is 0.6.

With `CCCCCCC(C)(C)c1ccc(-c2ccc(C#N)cc2)c(O)c1` as the compound, how does the Ki [1] read?
The Ki was > 1 µM.

And the Ki [2]?
The Ki was > 1 µM.

How did the Ki [1] turn out when `Cc1cc(C)cc(-c2ccc(C(C)(C)CCCO)cc2O)c1` was run?
The Ki was 1.1 µM.

And the Ki [2]?
The Ki was 0.056 µM.

What about the Ratio Ki [3] of the same compound?
The Ratio Ki was 20.

For `CCCCCCC(C)(C)c1ccc(-c2cc(C)cc(C)c2)cc1`, which Ki [1] is on record?
The Ki was > 30 µM.

What about the Ratio Ki [3] of the same compound?
Its Ratio Ki is > 10.

Which Ki [1] does the source give for `CNC(=O)CCC(C)(C)c1ccc(-c2cc(C)cc(C)c2)c(O)c1` here?
The Ki was 0.84 µM.

What about the Ki [2] of the same compound?
The Ki was 0.14 µM.

And the Ratio Ki [3]?
The Ratio Ki was 6.

What does the source list for `CCCCCCC(C)(C)c1ccc(-c2cc(C)cc(C)c2)c(COC(=O)CN2CCOCC2)c1`?
Ki [1]: 0.37 µM; Ki [2]: 0.00081 µM; Ratio Ki [3]: 500

`CCCCCCC1(c2ccc(-c3cc(C)cc(C)c3)c(O)c2)CC1` was tested. Which Ki [1] did it give?
The Ki was 0.013 µM.

What about the Ki [2] of the same compound?
Its Ki is 0.055 µM.

And the Ratio Ki [3]?
Its Ratio Ki is 0.2.

Which Ki [1] does the source give for `Cc1cc(C)cc(-c2ccc(C(C)(C)C(=O)O)cc2O)c1` here?
The Ki was > 1 µM.

What about the Ki [2] of the same compound?
Its Ki is > 1 µM.

`CCCCCCC(C)(C)c1ccc(-c2cc(C)cc(C)c2)c(C(=O)O)c1` was tested. Which Ki [1] did it give?
Its Ki is > 1 µM.

And the Ki [2]?
The Ki was > 1 µM.

What does the source list for `CNC(=O)CCCCC(C)(C)c1ccc(-c2cc(C)cc(C)c2)c(O)c1`?
Ki [1]: 0.096 µM; Ki [2]: 0.039 µM; Ratio Ki [3]: 2

With `COC(=O)C(C)(C)c1ccc(-c2cc(C)cc(C)c2)c(O)c1` as the compound, how does the Ki [1] read?
Its Ki is 0.16 µM.

And the Ki [2]?
Its Ki is 0.016 µM.

And the Ratio Ki [3]?
Its Ratio Ki is 10.

With `CCCCCCC(C)(C)c1ccc(-c2cccc(N)c2)c(O)c1` as the compound, how does the Ki [1] read?
The Ki was 0.015 µM.

And the Ki [2]?
Its Ki is 0.044 µM.

What about the Ratio Ki [3] of the same compound?
Its Ratio Ki is 0.3.

How did the Ki [1] turn out when `Cc1cc(C)cc(-c2ccc(C(C)(C)CCCCC(=O)O)cc2O)c1` was run?
The Ki was > 1 µM.

What about the Ki [2] of the same compound?
The Ki was > 1 µM.

Which Ki [1] does the source give for `CCCCCCC(C)(C)c1ccc(-c2ccc(C)c(C)c2)c(O)c1` here?
Its Ki is 0.6 µM.

What about the Ki [2] of the same compound?
Its Ki is 0.83 µM.

And the Ratio Ki [3]?
The Ratio Ki was 0.7.

What does the source list for `CNC(=O)C(C)(C)c1ccc(-c2cc(C)cc(C)c2)c(O)c1`?
Ki [1]: > 1 µM; Ki [2]: > 1 µM

What does the source list for `CCCCCCC(C)(C)c1ccc(-c2cc(C)cc(C)c2)c(C(N)=O)c1`?
Ki [1]: 0.37 µM; Ki [2]: 0.32 µM; Ratio Ki [3]: 1

`CCCCCCC(C)(C)c1ccc(-c2cc(C)cc(C)c2)c(C(=O)OC)c1` was tested. Which Ratio Ki [3] did it give?
The Ratio Ki was 2 and 1.

For `CCCCCCC(C)(C)c1ccc(-c2ccccc2N)c(O)c1`, which Ki [1] is on record?
Its Ki is 0.0052 µM.

What about the Ki [2] of the same compound?
The Ki was 0.017 µM.

What about the Ratio Ki [3] of the same compound?
Its Ratio Ki is 0.3.

With `CCCCCCC(C)(C)c1ccc(-c2cc(C)cc(C)c2)c(N)c1` as the compound, how does the Ki [1] read?
Its Ki is 0.08 µM.

And the Ki [2]?
The Ki was 0.051 µM.

And the Ratio Ki [3]?
Its Ratio Ki is 2.

Which results are given for `CCCCCCC(C)(C)c1ccc(-c2c(C)cccc2C)c(O)c1`?
Ki [1]: 0.0017 µM; Ki [2]: 0.018 µM; Ratio Ki [3]: 0.1

`CCCCCCC1(c2ccc(-c3cc(C)cc(C)c3)c(O)c2)CCCCC1` was tested. Which Ki [1] did it give?
Its Ki is 0.0018 µM.

And the Ki [2]?
Its Ki is 0.0017 µM.

What about the Ratio Ki [3] of the same compound?
The Ratio Ki was 1.

For `CCCCCCC(C)(C)c1ccc(-c2cc(C)cc(C)c2)c(C(=O)NC(C)C)c1`, which Ki [1] is on record?
Its Ki is > 1 µM.

And the Ki [2]?
The Ki was > 1 µM.

`Cc1cc(C)cc(-c2ccc(C(C)(C)CCCCCO)cc2O)c1` was tested. Which Ki [1] did it give?
The Ki was 0.039 µM.

And the Ki [2]?
Its Ki is 0.0036 µM.

What about the Ratio Ki [3] of the same compound?
The Ratio Ki was 10.

`CCCCCCC(C)(C)c1ccc(-c2cc(C)cc(C)c2)c(CN2CCOCC2)c1` was tested. Which Ki [1] did it give?
Its Ki is 3.9 µM.

What about the Ki [2] of the same compound?
The Ki was 0.66 µM.

And the Ratio Ki [3]?
Its Ratio Ki is 6.

Which Ki [1] does the source give for `CCCCCCC(C)(C)c1ccc(-c2cc(C)cc(C)c2)c(CO)c1` here?
The Ki was 0.36 µM.

And the Ki [2]?
The Ki was 0.48 µM.

What about the Ratio Ki [3] of the same compound?
Its Ratio Ki is 0.8.

Which Ki [1] does the source give for `Cc1cc(C)cc(-c2ccc(C(C)(C)CO)cc2O)c1` here?
Its Ki is 2.2 µM.

And the Ki [2]?
The Ki was 0.6 µM.

And the Ratio Ki [3]?
Its Ratio Ki is 4.

What does the source list for `CCCCCCC(C)(C)c1ccc(-c2cc(C)cc(C)c2)c(CN)c1`?
Ki [1]: 1.5 µM; Ki [2]: 0.38 µM; Ratio Ki [3]: 4

`CCCCCCC(C)(C)c1ccc(-c2cccc(C(=O)O)c2)c(O)c1` was tested. Which Ki [1] did it give?
Its Ki is > 1 µM.

What about the Ki [2] of the same compound?
The Ki was > 1 µM.

With `CCCCCCC(C)(C)c1ccc(-c2cc(C)cc(C)c2)c(O)c1` as the compound, how does the Ki [1] read?
Its Ki is 0.0027 µM.

What about the Ki [2] of the same compound?
The Ki was 0.0023 µM.

What about the Ratio Ki [3] of the same compound?
The Ratio Ki was 1.
